Test results taken from patent publication US20240150301A1, “METHODS OF MODULATING ANDROGEN RECEPTOR CONDENSATES” (ETERN BIOPHARMA (SHANGHAI) CO., LTD., priority 2021, published 2024).

Assays:
AR V7 [1] = target: T1, AR V7 (Homo sapiens, UniProt P10275); assay: ARE-luciferase reporter assay in HEK293T cells cotransfected with AR-V7; assay type: cell-based; set-up: host or cells: HEK293T; details: HEK293T cotransfected with AR-V7, hormone-starved, 24 h; read-out: HEK293T(V7) ARE-luc IC50
T1 sequence (P10275 1-644 isoform P10275-3): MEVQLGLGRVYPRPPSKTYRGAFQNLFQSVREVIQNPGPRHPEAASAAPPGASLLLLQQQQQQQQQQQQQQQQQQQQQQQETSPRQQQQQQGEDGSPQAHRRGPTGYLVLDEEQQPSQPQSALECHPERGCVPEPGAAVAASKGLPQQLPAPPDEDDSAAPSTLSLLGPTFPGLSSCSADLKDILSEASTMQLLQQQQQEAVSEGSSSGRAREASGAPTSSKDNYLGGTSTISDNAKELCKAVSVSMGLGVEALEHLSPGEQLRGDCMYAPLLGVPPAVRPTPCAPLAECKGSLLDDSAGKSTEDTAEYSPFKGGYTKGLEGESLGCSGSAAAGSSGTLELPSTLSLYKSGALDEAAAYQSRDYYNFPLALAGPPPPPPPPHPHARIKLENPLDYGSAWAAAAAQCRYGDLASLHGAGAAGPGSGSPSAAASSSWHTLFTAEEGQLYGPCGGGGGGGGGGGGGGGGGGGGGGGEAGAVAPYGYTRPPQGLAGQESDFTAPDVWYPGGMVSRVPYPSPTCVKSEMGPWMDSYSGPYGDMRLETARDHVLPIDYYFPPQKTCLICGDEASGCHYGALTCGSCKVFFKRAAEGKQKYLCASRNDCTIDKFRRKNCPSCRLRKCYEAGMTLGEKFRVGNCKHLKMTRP
Method: (§1) The ARE-luciferase reporter plasmid contains functional AREs (androgen response elements) to which AR binds in response to androgen to induce luciferase activity. LNCaP (Cobioer) cells were transiently transfected with the ARE-luciferase reporter in charcoal stripped FBS/phenol red-free RPMI medium prior to treatment for 24 hours. Then DMSO or test compounds with serial diluted concentrations were added one hour prior to the addition of DHT(1 nM). After 24 h of incubation with DHT, cells were lysed and luciferase activity was assayed using the ONE-Glo™ Luciferase Assay System (Promega) and measured using EnVision Multimode Plate Reader, according to manufacturer's instructions. Values were normalized to cell viability determined by CellTiter-Glo® Luminescent Cell Viability Assay Kit (Promega). […] GraphPad Prism graphing software was used to calculate IC50 values.
(§2) To evaluate the transcriptional activity of AR-V7, HEK293T(Cobioer) cells were transiently cotransfected with an expression vector for AR-V7 and the ARE-luciferase reporter in hormone-starved conditions. For 22Rv1(Cobioer) prostate cancer cell line, which expresses endogenous AR-V7, ARE-luciferase reporter was transiently transfected in hormone-starved conditions. 24 h after transfection, DMSO or test compounds with serial diluted concentrations were added for additional 24 h incubation. Reporter activity was detected and normalized by cell viability as described above. Treatments were normalized to DMSO control activity, and IC50 values were further determined via GraphPad Prism graphing software.

LNCaP cells = assay: Cell proliferation assay (CellTiter-Glo), LNCaP; assay type: cell-based; details: Homo sapiens, 96 h, 0.2 nM DHT, 4 days, read-out: LNCaP IC50 AR-positive (cell proliferation)
Method: (§3) To evaluate the effect of exemplary compounds on proliferation of AR/AR-V7-dependent prostate cancer cells, cell viability assay was performed in LNCaP (AR-positive), 22Rv1 (AR-positive; AR-V7 positive), VCaP (AR-positive; AR-V7 positive), and DU145 (AR-negative) cells, respectively.
(§4) LNCaP cells were seeded in charcoal stripped FBS/phenol red-free RPMI medium in 96-well plates for 24 h before pretreating for 1 h with test compounds prior to addition of 0.2 nM DHT for 4 days. 22Rv1 or VCaP cells were cultured in charcoal stripped FBS/phenol red-free RPMI medium for 24 h before addition of test compounds for 4 days. DU145 cells were seeded in complete medium for 24 h before addition of test compounds for 4 days. Cell proliferation was measured with CellTiter-Glo® Luminescent Cell Viability Assay (Promega). In LNCaP cells, DHT-dependent cell growth is calculated by measuring the difference between vehicle control (DMSO) cells treated with or without 0.2 nM DHT. The IC50 values were determined using the four parameter fit via GraphPad Prism graphing software.

22Rv1 cells = assay: Cell proliferation assay (CellTiter-Glo), 22Rv1; assay type: cell-based; details: Homo sapiens, 22Rv1, 96 h; 4 days; read-out: 22Rv1 IC50 AR-positive; AR-V7 positive (cell proliferation)
Method: as §3, §4

DU145 cells = assay: Cell proliferation assay (CellTiter-Glo), DU145; assay type: cell-based; details: Homo sapiens, DU-145, 96 h; 4 days; read-out: DU145 IC50 AR-negative (cell proliferation)
Method: as §3, §4

[2] = tested on: AR or AR-V7 downstream target genes; assay: AR/AR-V7 target gene qPCR assay in 22Rv1 cells; assay type: cell-based, human; details: 22Rv1, 48 h, RT-qPCR
Method: To evaluate the effect of exemplary compounds on mRNA expression of AR or AR-V7 downstream target genes, real-time quantitative PCR measurements were performed in prostate cancer cell line 22Rv1 expressing both AR and AR-V7.
22Rv1 cells were cultured in charcoal stripped FBS/phenol red-free RPMI medium for 24 h, and then treated with DMSO or test compounds for additional 48 h prior to RT-qPCR. Briefly, RNA was isolated from cells using RNeasy Mini Kit (Qiagen) following the manufacturer's protocol. RNA was reverse transcribed and subjected to qPCR using PowerUp™ SYBR™ Green Master Mix (Applied Biosystems). The relative quantity of the target genes was calculated using the ΔΔCt method by comparing Ct of the target genes and mean Ct of the housekeeping gene GAPDH.

AR V7 [3] = target: T1, AR V7; assay: ARE-luciferase reporter assay in 22Rv1 cells (endogenous AR-V7); assay type: cell-based; set-up: 22Rv1(Cobioer) prostate cancer cell line, which expresses endogenous AR-V7; host or cells: 22Rv1; details: 22Rv1, hormone-starved, 24 h; read-out: 22Rv1 ARE-luc IC50
Method: as §1, §2

IC50 (AR V7 [1]) [µM] | IC50 (LNCaP cells) [µM] | IC50 (22Rv1 cells) [µM] | IC50 (DU145 cells) [µM] | IC50 (AR V7 [3]) [µM] | Compound | mRNA expression of target genes of either AR or AR-V7 [2]
8.9 |  |  |  |  | CC(C)(c1ccc(C#Cc2cnc(NS(C)(=O)=O)nc2)cc1)c1cc(Cl)c(OCCCl)c(C#N)c1 [Compound 60, N-(5-((4-(2-(3-chloro-4-(2-chloroethoxy)-5-cyanophenyl)propan-2-yl)phenyl)ethynyl)pyrimidin-2-yl)methanesulfonamide] | 
2.1 | 0.86 | 3.24 | > 20 | 8.6 | CC(C)(c1ccc(OCc2ccnc(N=S3(=O)CCNCC3)n2)cc1)c1cc(Cl)c(OCCCl)c(C#N)c1 [Compound 6, 3-chloro-2-(2-chloroethoxy)-5-(2-(4-((2-((1-oxido-1λ^6-thiomorpholin-1-ylidene)amino)pyrimidin-4-yl)methoxy)phenyl)propan-2-yl)benzonitrile] | inhibited mRNA expression
> 20 | 7.01 | > 20 | 17.2 | > 20 | CC(C)(c1ccc(OCc2ccnc(NS(C)(=O)=O)n2)cc1)c1cc(Cl)c(OCCCl)c(C#N)c1 [Compound AA, N-(4-((4-(2-(3-chloro-4-(2-chloroethoxy)-5-cyanophenyl)propan-2-yl)phenoxy)methyl)pyrimidin-2-yl) methane sulfonamide, reference compound] | inhibited mRNA expression
